“Also recorded” adds a separate entry of the source.
Legend:
[1] = Polymorph analysis by X-ray powder diffraction (XRPD) after wet granulation / mixing of pravastatin sodium form LEK; format: physicochemical
Procedure: References to 2Θ values are to those measured using CuKα radiation. Samples are measured on apparatus Siemens D-5000 by reflex technique at two conditions: • a. Samples with high amount of pravastatin sodium (more than 30%): CuKα radiation, range from 2° to 37° 2Θ, step 0.04° 2Θ, integration time 1 second, slots V20 and 0.6 mm. • b. Samples with low amount of pravastatin sodium (less than 30%): CuKα radiation, range from 3° to 12° 2Θ, step 0.04° 2Θ, integration time 15 second, slots V20 and 0.6 mm.

[2] = forms as named in WO 01/43723; cited from earlier work

**Q.** Which results are given for `CC[C@H](C)C(=O)O[C@H]1C[C@H](O)C=C2C=C[C@H](C)[C@H](CC[C@@H](O)C[C@@H](O)CC(=O)O)[C@H]21` [pravastatin sodium]?
**A.** conversion on granulation with granulating liquid comprising a binder (PVP) ([1]; PVP in ethanol, in some experiments): partial conversion; conversion to another polymorph form on granulation with alcohol alone ([1]; alcohol (absolute ethanol or aqueous ethanol) as granulating liquid, absence of other ingredients): does not convert to any other polymorph form; also recorded: does not cause the precrystallization; precrystallization of dry mixture ([1]; dry mixture of pravastatin sodium and microcrystalline cellulose, 2 hours at 60° C.): does not cause any precrystallization; stability of Lek form in wet granulation ([1]; mass ratio pravastatin sodium to microcrystalline cellulose higher or equal to 1:1 and pravastatin sodium to ethanol higher or equal to 1:1, preferably 1:0.5): stable; precrystallization in wet granulation ([1]; pravastatin sodium:microcrystalline cellulose = 1:0.5, pravastatin sodium and ethanol 1:0.4): no precrystallization occurs; polymorph form in the presence of a high amount of microcrystalline cellulose and granulating liquid ([1]; wet granulation with ethanol): precrystallizes to form D

**Q.** Which “polymorph conversion by treating with alcohol” value [2] does the source give for `CC[C@H](C)C(=O)O[C@H]1C[C@H](O)C=C2C=C[C@H](C)[C@H](CC[C@@H](O)C[C@@H](O)CC(=O)O)[C@H]21` [pravastatin sodium form D, pravastatin sodium] here?
**A.** convert to forms A, H, H1, I, J, K

Source: patent US20110021631A1, “Method of preparing stabilized pharmaceutical compositions comprising active ingredients susceptible to conversion to alternate polymorph forms” (LEK PHARMACEUTICALS D.D., priority 2004, published 2011)
